Experimental data published in US20250115581A1, “SUBSTITUTED PIPERIDINES AS CK1A DEGRADERS” (Monte Rosa Therapeutics, Inc., priority 2022, published 2025).

Tests used:
CK1α = target: T1, CK1α (Homo sapiens, UniProt P48729+Q96SW2); assay: CK1α NanoBit Assay (HiBiT-tagged CSNK1A1 in HEK293 cells, luminescence); type: cell-based; conditions: 24 h
T1 construct: HEK293 clonal lines with CRISPR KI HiBiT tag on CSNK1A1; host or cells: HEK293 clonal line, CRISPR knock-in HiBiT at the CSNK1A1 locus, stably expressing LgBiT
Summary of the method: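 HEK293 with endogenous HiBiT-tagged CSNK1A1 and stable LgBiT, live-cell Endurazine substrate; compound added at 10 or 30 μM final top concentration after 16 h plating, then 24 h at 37 °C. Luminescence normalised to plate controls; DC50 by 3-parameter logistic fit, hill slope 1.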

CW2 = assay: Growth inhibition, CyQUANT Direct Cell Proliferation Assay, CW2; type: cell-based; conditions: Homo sapiens, CW-2; CW2 cells, 120 to 168 hours
Procedure: (§1) SKCO1, LS180, and LS174T cell lines were purchased from ATCC. CW2 cell line was purchased from Riken. GP2D cell line was purchased from Sigma/ECACC. All cell lines were cultured in manufacturer's recommended media at 37° C., 5% CO2. Briefly, cells were suspended in 200 μL of media and seeded at 300 to 1,800 cells per well in tissue culture treated 96-well plates with black walls and clear bottom. Plates were incubated overnight and initial (TO) read was performed the following day using CyQUANT Direct Cell Proliferation Assay Kit (Thermo Fisher Scientific) according to manufacturer's protocol. All compounds were solubilized in DMSO and prepared at 3-fold serial dilution, using 9 points starting at 30 μM as highest concentration, administered to cells and incubated for 120 to 168 hours, at which point CyQUANT assay measurement was performed using Acumen Cellista instrument (Ex/Em 480/520 nm). Media-only wells were used as blank, and 0.3% DMSO was used as DMSO-treated cell control. Growth inhibition (percent response) was calculated using the following formula in Excel: “=if ([Compound treated Day N]>[Untreated Day 0, AVG], ([Compound treated Day N]− [Untreated Day 0, AVG])/([Untreated Day N]−[Untreated Day 0, AVG])*100, ([Compound Treated Day N]−[Untreated Day 0, AVG])/([Untreated Day 0, AVG])*100)”. GI50 is the response corresponding to the 50% of untreated control.
(§2) GI50 data are reported in Tables 4a, 4b, 4c, 4d, and 4e for compounds in Table 1. In Tables 4a, 4b, 4c, 4d, and 4e below, According to the code, A represents a GI50 value of ≤0.1 μM, B represents a GI50 value >0.1 μM and ≤1 μM, C represents an GI50 value >1 μM.

LS180 = assay: Growth inhibition, CyQUANT Direct Cell Proliferation Assay, LS180; type: cell-based; conditions: Homo sapiens; LS180 cells, 120 to 168 hours
Procedure: as §1, §2

GP2D = assay: Growth inhibition, CyQUANT Direct Cell Proliferation Assay, GP2D; type: cell-based; conditions: GP2D cells, 120 to 168 hours
Procedure: as §1, §2

SKCO1 = assay: Growth inhibition, CyQUANT Direct Cell Proliferation Assay, SKCO1; type: cell-based; conditions: Homo sapiens, SK-CO-1; SKCO1 cells, 120 to 168 hours
Procedure: as §1, §2

CRBN/DDB1 = CRBN/DDB1 (Homo sapiens, UniProt Q96SW2); assay: HTRF binding assay (displacement of Cy5-thalidomide probe from CRBN/DDB1); conditions: CRBN/DDB1 2.5 nM, Cy5-Thalidomide 100 nM, 30 min; geometric mean; read-out: HTRF_Thali_Disp_DR_geo_IC50
Summary of the method: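 HTRF displacement of Cy5-thalidomide probe (100 nM) from His-tagged CRBN/DDB1 (2.5 nM) with anti-His terbium cryptate, in HEPES/NaCl/TCEP/EDTA/Tween20 buffer; 10-point 1:3 series, 30 min at ambient temperature. 665/620 nm ratio fitted 4-parameter logistic for IC50; Ki via Cheng-Prusoff.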

LS174T = assay: Growth inhibition, CyQUANT Direct Cell Proliferation Assay, LS174T; type: cell-based; conditions: Homo sapiens; LS174T cells, 120 to 168 hours
Procedure: as §1, §2

Chain of CRBN/DDB1 (Q96SW2 whole entry): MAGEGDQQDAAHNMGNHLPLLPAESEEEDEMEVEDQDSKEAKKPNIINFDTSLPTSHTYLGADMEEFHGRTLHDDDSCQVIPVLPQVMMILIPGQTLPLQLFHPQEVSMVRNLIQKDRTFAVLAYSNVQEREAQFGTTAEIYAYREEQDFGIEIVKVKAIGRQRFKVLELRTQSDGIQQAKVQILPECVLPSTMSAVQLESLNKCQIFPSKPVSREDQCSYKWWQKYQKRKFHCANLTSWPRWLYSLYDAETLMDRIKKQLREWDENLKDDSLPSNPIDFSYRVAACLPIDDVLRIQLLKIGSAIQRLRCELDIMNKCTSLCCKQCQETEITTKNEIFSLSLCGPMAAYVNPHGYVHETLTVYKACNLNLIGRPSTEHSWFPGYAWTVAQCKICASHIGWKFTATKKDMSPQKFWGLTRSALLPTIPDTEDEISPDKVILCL
Chain of CRBN/DDB1 (Q16531 whole entry partner): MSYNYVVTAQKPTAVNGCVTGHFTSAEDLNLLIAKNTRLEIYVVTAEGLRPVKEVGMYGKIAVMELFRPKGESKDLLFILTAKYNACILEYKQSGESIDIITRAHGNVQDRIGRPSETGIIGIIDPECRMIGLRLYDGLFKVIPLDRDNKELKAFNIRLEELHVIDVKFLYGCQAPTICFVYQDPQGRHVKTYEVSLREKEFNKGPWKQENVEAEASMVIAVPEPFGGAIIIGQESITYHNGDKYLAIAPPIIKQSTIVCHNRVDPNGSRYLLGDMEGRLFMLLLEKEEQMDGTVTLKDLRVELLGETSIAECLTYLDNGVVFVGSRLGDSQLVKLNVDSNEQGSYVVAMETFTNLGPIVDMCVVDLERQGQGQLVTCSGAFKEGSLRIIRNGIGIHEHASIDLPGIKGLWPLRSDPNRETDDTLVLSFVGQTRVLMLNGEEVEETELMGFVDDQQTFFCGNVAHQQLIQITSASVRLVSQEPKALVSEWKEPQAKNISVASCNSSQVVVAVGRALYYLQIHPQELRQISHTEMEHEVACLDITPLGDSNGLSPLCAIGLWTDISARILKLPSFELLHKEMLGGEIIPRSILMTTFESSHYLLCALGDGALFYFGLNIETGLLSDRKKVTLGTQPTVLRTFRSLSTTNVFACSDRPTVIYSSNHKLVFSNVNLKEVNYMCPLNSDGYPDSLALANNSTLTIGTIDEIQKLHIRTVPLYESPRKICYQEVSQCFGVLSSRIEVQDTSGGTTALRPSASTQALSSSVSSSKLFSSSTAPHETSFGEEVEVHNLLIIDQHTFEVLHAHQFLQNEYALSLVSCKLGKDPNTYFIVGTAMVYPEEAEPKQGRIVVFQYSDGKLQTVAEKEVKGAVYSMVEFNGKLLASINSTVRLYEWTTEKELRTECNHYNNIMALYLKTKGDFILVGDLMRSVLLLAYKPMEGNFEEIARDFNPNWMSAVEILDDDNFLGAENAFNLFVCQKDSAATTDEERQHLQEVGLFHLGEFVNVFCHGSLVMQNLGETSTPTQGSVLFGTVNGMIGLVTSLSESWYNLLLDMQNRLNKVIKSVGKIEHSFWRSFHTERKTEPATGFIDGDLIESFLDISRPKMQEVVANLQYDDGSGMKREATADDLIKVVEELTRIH
T1 sequence (P48729 whole entry): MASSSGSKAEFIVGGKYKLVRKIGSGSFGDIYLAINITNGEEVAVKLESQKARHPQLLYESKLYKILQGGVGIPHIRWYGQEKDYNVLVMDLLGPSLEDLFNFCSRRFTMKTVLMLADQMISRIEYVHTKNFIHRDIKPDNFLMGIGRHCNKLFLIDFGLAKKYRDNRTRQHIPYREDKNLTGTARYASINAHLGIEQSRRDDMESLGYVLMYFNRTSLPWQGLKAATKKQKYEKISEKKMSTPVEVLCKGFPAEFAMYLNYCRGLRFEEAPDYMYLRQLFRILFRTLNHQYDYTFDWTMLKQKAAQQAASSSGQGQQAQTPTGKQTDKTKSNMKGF
T1 sequence (Q96SW2 whole entry): as the sequence (Q96SW2 whole entry) above
T1 sequence (Q16531 whole entry partner): as the sequence (Q16531 whole entry partner) above

DC50 (CK1α): ≤ 0.1 µM
GI50 (SKCO1): 100 to 1000 nM
IC50 (CRBN/DDB1): 100 to 1000 nM
Compound: C[C@@H]1CN(c2ccc3c(c2)CN(C2CCC(=O)NC2=O)C3=O)C(=O)N1c1ccc(C2CC2)nc1 (stereo partly drawn) [Compound 137, 3-(5-((R)-3-(6-cyclopropylpyridin-3-yl)-4-methyl-2-oxoimidazolidin-1-yl)-1-oxoisoindolin-2-yl)piperidine-2,6-dione]
GI50 (CW2): 100 to 1000 nM
GI50 (LS180): > 1000 nM
GI50 (GP2D): > 1000 nM
GI50 (LS174T): 100 to 1000 nM
